From ChEMBL document CHEMBL3044830, “Synthesis, characterization, antibacterial, antifungal, and immunomodulating activities of gatifloxacin derivatives” (Med Chem Res, 2010)

How the values were obtained:
Trichophyton rubrum [1] = assay: Antifungal activity against Trichophyton rubrum assessed as concentration required to obtain a zone of inhibition of 40 mm after 7 days by disk diffusion method; assay type: functional
Trichophyton rubrum [2] = assay: Antifungal activity against Trichophyton rubrum assessed as concentration required to obtain a zone of inhibition of 20 mm after 7 days by disk diffusion method; assay type: functional
Proteus mirabilis [3] = assay: Antibacterial activity against Proteus mirabilis assessed as concentration required to obtain a zone of inhibition of 10 mm after 18 to 24 hr by disc diffusion method; assay type: functional
Proteus mirabilis [4] = assay: Antibacterial activity against Proteus mirabilis assessed as concentration required to obtain a zone of inhibition of 20 mm after 18 to 24 hr by disc diffusion method; assay type: functional
Proteus mirabilis [5] = assay: Antibacterial activity against Proteus mirabilis assessed as concentration required to obtain a zone of inhibition of 5 mm after 18 to 24 hr by disc diffusion method; assay type: functional
Klebsiella pneumoniae [6] = assay: Antibacterial activity against Klebsiella pneumoniae assessed as concentration required to obtain a zone of inhibition of 20 mm after 18 to 24 hr by disk diffusion method; assay type: functional
Klebsiella pneumoniae [7] = assay: Antibacterial activity against Klebsiella pneumoniae assessed as concentration required to obtain a zone of inhibition of 10 mm after 18 to 24 hr by disk diffusion method; assay type: functional
Shigella flexneri [8] = assay: Antibacterial activity against Shigella flexneri assessed as concentration required to obtain a zone of inhibition of 5 mm after 18 to 24 hr by disk diffusion method; assay type: functional
Escherichia coli [9] = assay: Antibacterial activity against Escherichia coli assessed as concentration required to obtain a zone of inhibition of 20 mm after 18 to 24 hr by disk diffusion method; assay type: functional
Escherichia coli [10] = assay: Antibacterial activity against Escherichia coli assessed as concentration required to obtain a zone of inhibition of 10 mm after 18 to 24 hr by disk diffusion method; assay type: functional
Klebsiella pneumoniae [11] = assay: Antibacterial activity against Klebsiella pneumoniae assessed as concentration required to obtain a zone of inhibition of 5 mm after 18 to 24 hr by disk diffusion method; assay type: functional
Shigella flexneri [12] = assay: Antibacterial activity against Shigella flexneri assessed as concentration required to obtain a zone of inhibition of 10 mm after 18 to 24 hr by disk diffusion method; assay type: functional
Shigella flexneri [13] = assay: Antibacterial activity against Shigella flexneri assessed as concentration required to obtain a zone of inhibition of 20 mm after 18 to 24 hr by disk diffusion method; assay type: functional
Escherichia coli [14] = assay: Antibacterial activity against Escherichia coli assessed as concentration required to obtain a zone of inhibition of 5 mm after 18 to 24 hr by disk diffusion method; assay type: functional
Bacillus subtilis [15] = assay: Antibacterial activity against Bacillus subtilis assessed as concentration required to obtain a zone of inhibition of 20 mm after 18 to 24 hr by disk diffusion method; assay type: functional
Bacillus subtilis [16] = assay: Antibacterial activity against Bacillus subtilis assessed as concentration required to obtain a zone of inhibition of 10 mm after 18 to 24 hr by disk diffusion method; assay type: functional
Bacillus subtilis [17] = assay: Antibacterial activity against Bacillus subtilis assessed as concentration required to obtain a zone of inhibition of 5 mm after 18 to 24 hr by disk diffusion method; assay type: functional
Pseudomonas aeruginosa [18] = assay: Antibacterial activity against Pseudomonas aeruginosa assessed as concentration required to obtain a zone of inhibition of 20 mm after 18 to 24 hr by disk diffusion method; assay type: functional
Pseudomonas aeruginosa [19] = assay: Antibacterial activity against Pseudomonas aeruginosa assessed as concentration required to obtain a zone of inhibition of 10 mm after 18 to 24 hr by disk diffusion method; assay type: functional
Pseudomonas aeruginosa [20] = assay: Antibacterial activity against Pseudomonas aeruginosa assessed as concentration required to obtain a zone of inhibition of 5 mm after 18 to 24 hr by disk diffusion method; assay type: functional
Citrobacter [21] = assay: Antibacterial activity against Citrobacter assessed as concentration required to obtain a zone of inhibition of 20 mm after 18 to 24 hr by disk diffusion method; assay type: functional
Citrobacter [22] = assay: Antibacterial activity against Citrobacter assessed as concentration required to obtain a zone of inhibition of 10 mm after 18 to 24 hr by disk diffusion method; assay type: functional
Citrobacter [23] = assay: Antibacterial activity against Citrobacter assessed as concentration required to obtain a zone of inhibition of 5 mm after 18 to 24 hr by disk diffusion method; assay type: functional
Shigella sp. [24] = assay: Antibacterial activity against Shigella typhi assessed as concentration required to obtain a zone of inhibition of 20 mm after 18 to 24 hr by disc diffusion method; assay type: functional
Shigella sp. [25] = assay: Antibacterial activity against Shigella typhi assessed as concentration required to obtain a zone of inhibition of 5 mm after 18 to 24 hr by disc diffusion method; assay type: functional
T-cell [26] = assay: Anti-inflammatory activity in Homo sapiens (human) T lymphocytes assessed as inhibition of PHA-induced [3H] thymidine uptake incubated for 72 hr prior to [3H]thymidine addition measured after 18 hr by liquid scintillation method; assay type: functional, cell-based
T-cell [27] = assay: Anti-inflammatory activity in Homo sapiens (human) T lymphocytes assessed as inhibition of PHA-induced [3H] thymidine uptake at 3.12 ug/ml incubated for 72 hr prior to [3H]thymidine addition measured after 18 hr by liquid scintillation method; assay type: functional
T-cell [28] = assay: Anti-inflammatory activity in Homo sapiens (human) T lymphocytes assessed as inhibition of PHA-induced [3H] thymidine uptake at 12.5 ug/ml incubated for 72 hr prior to [3H]thymidine addition measured after 18 hr by liquid scintillation method; assay type: functional
T-cell [29] = assay: Anti-inflammatory activity in Homo sapiens (human) T lymphocytes assessed as inhibition of PHA-induced [3H] thymidine uptake at 50 ug/ml incubated for 72 hr prior to [3H]thymidine addition measured after 18 hr by liquid scintillation method; assay type: functional
Blood [30] = assay: Antioxidant activity in Homo sapiens (human) whole blood assessed as inhibition of ROS production after 30 min by luminol-enhanced chemiluminescence assay; assay type: functional, tissue-based; settings: 0.5 h
Blood [31] = assay: Antioxidant activity in Homo sapiens (human) whole blood assessed as inhibition of ROS production at 12.5 ug/ml after 30 min by luminol-enhanced chemiluminescence assay; assay type: functional; settings: 0.5 h
Blood [32] = assay: Antioxidant activity in Homo sapiens (human) whole blood assessed as inhibition of ROS production at 50 ug/ml after 30 min by luminol-enhanced chemiluminescence assay; assay type: functional; settings: 0.5 h
Blood [33] = assay: Antioxidant activity in Homo sapiens (human) whole blood assessed as inhibition of ROS production at 100 ug/ml after 30 min by luminol-enhanced chemiluminescence assay; assay type: functional; settings: 0.5 h
Fusarium solani [34] = assay: Antifungal activity against Fusarium solani assessed as concentration required to obtain a zone of inhibition of 40 mm after 7 days by disk diffusion method; assay type: functional
Fusarium solani [35] = assay: Antifungal activity against Fusarium solani assessed as concentration required to obtain a zone of inhibition of 20 mm after 7 days by disk diffusion method; assay type: functional
Candida albicans [36] = assay: Antifungal activity against Candida albicans assessed as concentration required to obtain a zone of inhibition of 40 mm after 7 days by disk diffusion method; assay type: functional
Candida albicans [37] = assay: Antifungal activity against Candida albicans assessed as concentration required to obtain a zone of inhibition of 20 mm after 7 days by disk diffusion method; assay type: functional
[38] = Antibacterial activity against Hofmanni bacterium assessed as concentration required to obtain a zone of inhibition of 5 mm after 18 to 24 hr by disc diffusion method
[39] = Antibacterial activity against Hofmanni bacterium assessed as concentration required to obtain a zone of inhibition of 20 mm after 18 to 24 hr by disc diffusion method
[40] = Antibacterial activity against Hofmanni bacterium assessed as concentration required to obtain a zone of inhibition of 10 mm after 18 to 24 hr by disc diffusion method

## COc1c(N2CCNC(C)C2)c(F)cc2c(=O)c(C(=O)O)cn(C3CC3)c12 (stereo not given) [GATIFLOXACIN]
Trichophyton rubrum [1]
  Activity: 14 µg/mL
Trichophyton rubrum [2]
  Activity: 12 µg/mL
Proteus mirabilis [3]
  Activity: 15 µg/mL
Proteus mirabilis [4]
  Activity: 19 µg/mL
Proteus mirabilis [5]
  Activity: 9 µg/mL
Klebsiella pneumoniae [6]
  Activity: 19 µg/mL
Klebsiella pneumoniae [7]
  Activity: 14 µg/mL
Shigella flexneri [8]
  Activity: 9 µg/mL
Escherichia coli [9]
  Activity: 17 µg/mL
Escherichia coli [10]
  Activity: 12 µg/mL
Klebsiella pneumoniae [11]
  Activity: 9 µg/mL
Shigella flexneri [12]
  Activity: 16 µg/mL
Shigella flexneri [13]
  Activity: 23 µg/mL
Escherichia coli [14]
  Activity: 7.5 µg/mL
Bacillus subtilis [15]
  Activity: 17 µg/mL
Bacillus subtilis [16]
  Activity: 15 µg/mL
Bacillus subtilis [17]
  Activity: 11 µg/mL
Pseudomonas aeruginosa [18]
  Activity: 14 µg/mL
Pseudomonas aeruginosa [19]
  Activity: 12 µg/mL
Pseudomonas aeruginosa [20]
  Activity: 8 µg/mL
Citrobacter [21]
  Activity: 26 µg/mL
Citrobacter [22]
  Activity: 23 µg/mL
Citrobacter [23]
  Activity: 15 µg/mL
Shigella sp. [24]
  Activity: 21 µg/mL
Shigella sp. [25]
  Activity: 8 µg/mL
T-cell [26]
  IC50: > 50 µg/mL
T-cell [27]
  inhibition at 3.12 µg/mL: -71.1%
T-cell [28]
  inhibition at 12.5 µg/mL: -97.9%
T-cell [29]
  inhibition at 50 µg/mL: -25.2%
Blood [30]
  IC50: 31 µg/mL
Blood [31]
  inhibition at 12.5 µg/mL: 19.7%
Blood [32]
  inhibition at 50 µg/mL: 66%
Blood [33]
  inhibition at 100 µg/mL: 84.7%
Fusarium solani [34]
  Activity: 18 µg/mL
Fusarium solani [35]
  Activity: 12 µg/mL
Candida albicans [36]
  Activity: 9 µg/mL
Candida albicans [37]
  Activity: 8 µg/mL
[38]
  Activity: 8 µg/mL
[39]
  Activity: 15 µg/mL
[40]
  Activity: 13 µg/mL
